Measured values taken from PubChem BioAssay AID179 (DTP/NCI, 2004).
Active and inactive are the calls of the source.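 The calls were made as follows: active = compounds giving half or more protection of infected cells from virus-caused growth loss, again on retest; inactive = the rest.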

Test system: CEM cells HIV-1 protection, formazan growth assay
Test: NCI AIDS Antiviral Assay
Settings: for IC50: measured here: growth of uninfected CEM cells
How it was run: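 Category rules: moderately active means at least 50% protection on retest, and confirmed active means 100% protection reproducibly. The underlying data came from a formazan growth assay in HIV-1-infected CEM cells.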

SMILES	EC50 [µM]	IC50 [µM]	outcome
CSc1c(C(C)=O)c(O)n(-c2ccc(Cl)cc2)c(=O)c1C#N	35.5	36.3	
O=C(Nc1nc2ncn(CCO)c2c(=O)[nH]1)c1ccccc1	> 832	> 832	
CC(=O)OCC1(C)C(OC(C)=O)CCC2(C)C(CC(OC(C)=O)C3=CCOC3=O)C(O)(CO)CCC12 (centres undefined)			inactive
COc1ccc(NC(C)=O)cc1N1C(=O)/C(=C\c2cc(OC)c(OC)c(OC)c2)S(=O)(=O)C1c1ccccc1 (centres undefined)	> 200	91.2	
O=C(O)CC1CCN(C(=O)c2ccccc2)C(Cc2c[nH]c3ccccc23)C1O (centres undefined)	> 126	> 126	
CC(C)(C)C(=O)/C=C/c1cccc(Oc2ccccc2)c1	> 18.6	> 18.6	
Nn1c(NNC(=O)C(=O)Nc2cc(Cl)c(Cl)cc2Cl)n[nH]c1=S	> 123	> 123	
c1ccc(CSCSCc2ccccc2)cc1			inactive
CC1(C)CCCCCCCCCC(C)(CCCCCCCCCCCCO)C1=O (centres undefined)	> 200	18.6	
CCCCCCCCCCCCCCCCCCCCCCNc1ccn(C2CC(OP(=O)(O)OCC3OC(n4cc(C)c(=O)[nH]c4=O)CC3N=[N+]=[N-])C(COP(=O)(O)OCC3CCC(n4ccc(N)nc4=O)O3)O2)c(=O)n1 (centres undefined)	0.234	38	
c1nc2nc3c(cn2n1)CCCC3			inactive
COc1ccc(-c2c(C3=NCCN3)nnn2-c2ccc(Cl)cc2)cc1	> 126	91.2	
CCOC(=O)C1=C(C)NC(C)=C(C(=O)OCC)C1c1cccc([N+](=O)[O-])c1			inactive
O=C(Nc1ccc(C2=NCCN2)cc1)c1cc(C(=O)Nc2ccc(C3=NCCN3)cc2)ncn1	12.3	61.7	
CCCCCC[N+](C)(C)Cc1ccc(C[N+](C)(C)CCCCCC)cc1			inactive
COc1cc(N=Nc2ccc(N=Nc3cc(NC(C)=O)c(N=Nc4ccc(S(=O)(=O)O)cc4)cc3S(=O)(=O)O)c(C)c2)c(C)cc1NC(=O)c1ccc(N)cc1	3.55	102	
O=[N+]([O-])c1cc(S(=O)(=O)c2ccc(O)c([N+](=O)[O-])c2)ccc1O	> 200	> 100	
CC[C@H]1CN2CCc3cc(OC)c(OC)cc3[C@@H]2C[C@@H]1C[C@@H]1c2cc(OC)c(OC)cc2CCN1N=O			inactive
O=C1c2ccccc2CCCC12OC2c1cccnc1 (centres undefined)	> 257	151	
CCCCCCCCCC(O)CC(=O)c1c(O)cccc1O (centres undefined)	> 200	32.4	
CCN(CC)CC(C)(C)C(=O)/C=C/c1ccc(/C=C/C(=O)C(C)(C)CN(CC)CC)cc1			inactive

SMILES	EC50 [µM]	IC50 [µM]	outcome
CC(=O)C1(N=Nc2ccc(S(=O)(=O)Nc3onc(C)c3C)cc2)CCOC1=O (centres undefined)	> 200	> 200	
CC(=O)N/N=C/c1ccc(N(C)C)cc1	> 200	> 200	
COCc1cn(C2CC(F)C(CO)O2)c(=O)nc1N (centres undefined)	> 457	> 457	
COC(=O)C1C(C(=O)OC)C2C(=O)C3C(C(=O)OC)C(C(=O)OC)C3C(=O)C12 (centres undefined)	> 91.2	> 91.2	
CCc1c(C)c2cc(N)ccc2[nH]c1=O	> 200	29.5	
O=C1Cc2csc3nc(=O)cc(n23)N1	> 120	> 120	
COc1cc2c(cc1O)C1Cc3ccc(OC)c(O)c3C(C2)N1C (centres undefined)	> 200	85.1	
Cc1cc(Cl)ccc1N1C(=O)C(=O)C(c2nc3ccccc3o2)C(=O)C1=O			inactive
COC(=O)/C=C(/C(=O)OC)c1c(C)cc2c(C)cc(C)cc(C)c1-2	> 200	10.7	
COc1ccc(CCNC(=O)Cc2cc(OC)c(OC)cc2Br)cc1OC	> 81.3	> 81.3	
CC(=O)CC1(O)C(=O)Nc2ccccc21 (centres undefined)	> 200	> 200	
O=C(OCc1c(-c2ccccc2)nn(-c2ccccc2)c1COC(=O)Oc1ccccc1)Oc1ccccc1	> 200	> 200	
S=C1C(CCCOCc2ccccc2)C2CCCC23CC2(CCN13)OCCS2 (centres undefined)	> 200	39.8	
CC/C(C)=C1/CC(C)(C)N=C1C	> 200	89.1	
CC1(C)C[N+](C)(C)C2(CCCC2)O1	> 200	> 200	
COc1ccc(Br)c(CCC(CO)C2=CCC3(CC2)OCCO3)c1 (centres undefined)	15.8	87.1	
C=C1CCc2occ(C)c2C2C1C1=C(CC(C)C1=O)C1OC12C (centres undefined)	> 219	> 219	
CN(C)CCN1C(=O)c2ccccc2C1(O)c1ccc(Cl)cc1 (centres undefined)	> 200	44.7	
COc1cc(N=CNc2cc(OC)n[n+]([O-])c2)c[n+]([O-])n1	> 224	> 224	
COC1/C=C\OC2(C)Oc3c(C)c(O)c4c(O)c(c(/C=N\N(C)C)c(O)c4c3C2=O)NC(=O)/C(C)=C\C=C/C(C)C(O)C(C)C(O)C(C)C(OC(C)=O)C1C (centres undefined)	> 200	12.9	
CSC(=S)N(C)NC(=O)c1cccc(C(=O)NN(C)C(=S)SC)n1	> 200	> 200	

SMILES	EC50 [µM]	IC50 [µM]	outcome
CCCCCCCCC(C)CCCCCCCCC(=O)O (centres undefined)			inactive
CC(=O)NN1CCN(C)CC1	> 200	> 200	
CCc1n[nH]c(=O)n1/N=C/c1ccccc1Cl	> 200	> 200	
CC(=O)N(/N=C1\CC(c2ccccc2)Oc2ccccc21)C(C)=O (centres undefined)	> 200	102	
C=C(C)COC1CCCCO1 (centres undefined)	> 200	38	
COC(=O)C1(C)CCCC2(C)C1CCC13OCC(CC21)C1(C(C)C)OC31 (centres undefined)			inactive
COc1cccc(/C=N/[N-]C(N)=O)c1[O-].[Co+2].[OH3+].c1ccncc1	> 14.5	> 14.5	
O=C(Nc1ccccc1)OCc1nc2c([nH]1)C(=O)C=CC2=O			inactive
N/N=C(\C(=O)Nc1ccc([N+](=O)[O-])cc1)C(C1=Nc2cc([N+](=O)[O-])ccc2NC1)[N+](=O)[O-] (centres undefined)	> 30.9	> 30.9	
CC[C@@H](C(=O)[C@@H](C)[C@@H](O)[C@H](C)CCc1ccc(C)c(O)c1C(=O)O)[C@H]1O[C@](CC)([C@H]2CC[C@](O)(CC)[C@H](C)O2)C[C@@H]1C	1.51	1.82	
CCCNC(=O)N(CCN(C)C)S(=O)(=O)c1ccc(Cl)cc1			inactive
Cc1ncc(CC#N)c2c1OC(C)(C)OC2	> 1150	> 1150	
CC(=O)OCC1OC(OC2C(COC(C)=O)OC(Sc3ccccc3C)C(OC(C)=O)C2OC(C)=O)C(OC(C)=O)C(OC(C)=O)C1OC(C)=O (centres undefined)	> 25.1	> 25.1	
Cc1c2ccccc2nc(CSCc2ccccc2)[n+]1[O-]	> 200	162	
O=c1/c(=C/c2ccccc2[N+](=O)[O-])sc2nc3ccccc3n12	> 3.24	> 3.24	
COc1cc2oc(=O)cc(C)c2cc1[N+](=O)[O-]	> 53.7	21.9	
CCOC(=O)c1nc2ccc(C(F)(F)F)cc2nc1Oc1ccc(F)cc1	> 200	> 200	
CN=c1nc2sc3c(c2c(NC(=S)NC)s1)CCCC3	77.6	> 200	
CCOC(=O)CON=c1c2ccccc2ccc2ccccc12	> 200	> 200	
CC(=O)OCC1OC(n2ccc(=O)[nH]c2=O)C(OC(C)=O)C(OC(C)=O)C1OC(C)=O (centres undefined)	> 562	> 562	
Nc1c(C(=O)N/N=C/c2ccc(Cl)cc2)sc(=S)n1-c1ccccc1	> 3.72	> 3.72	
